Reference: the supplement of paper PMC10307832

How the values were obtained:
Test in all cases: relative viability (nuclei count vs DMSO), 5 days (fraction); higher = more cells survive
Obatoclax = compound: COC1=CC(c2cc3ccccc3[nH]2)=N/C1=C\c1[nH]c(C)cc1C [Obatoclax]
Outline: (§1)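 Viability here means nuclei in treated wells divided by nuclei in vehicle wells, reported as the median across plates. Only plates with control CV below 25% and at least one doubling passed. Lung cancer cell lines in 1536-well plates were exposed to five √10-spaced library-drug doses for 5 days and counted from 4× Hoechst images in MetaXpress.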

Bortezomib = compound: CC(C)C[C@H](NC(=O)[C@H](Cc1ccccc1)NC(=O)c1cnccn1)B(O)O [Bortezomib]
Outline: as §1

[1] = compound: CC1=CC(=NN1)NC2=CC(=NC(=N2)/C=C/C3=CC=CC=C3)N4CCN(CC4)C
Outline: as §1

| Cell Line | relative viability (Obatoclax; 0.01 µM) | relative viability (Obatoclax; 0.03162 µM) | relative viability (Obatoclax; 0.1 µM) | relative viability (Obatoclax; 0.3162 µM) | relative viability (Obatoclax; 1 µM) | relative viability (Bortezomib; 0.0002 µM) | relative viability (Bortezomib; 0.000632 µM) | relative viability (Bortezomib; 0.002 µM) | relative viability (Bortezomib; 0.002 µM, anchor plate) | relative viability (Bortezomib; 0.006325 µM) | relative viability (Bortezomib; 0.02 µM) | relative viability ([1]; 0.08 µM) | relative viability ([1]; 0.253 µM) | relative viability ([1]; 0.8 µM) | relative viability ([1]; 2.53 µM) | relative viability ([1]; 8 µM) |
| --- | --- | --- | --- | --- | --- | --- | --- | --- | --- | --- | --- | --- | --- | --- | --- | --- |
| NCI-H1355 | 1.03 | 0.913 | 0.918 | 0.96 | 0.947 | 0.911 | 0.909 | 1.08 | 1.23 | 0.668 | 0.152 | 0.96 | 0.965 | 0.955 | 0.647 | 0.159 |
| NCI-H1395 | 1 | 0.846 | 0.647 | 0.838 | 0.68 | 0.949 | 0.866 | 0.807 |  | 0.332 | 0.293 | 0.916 | 1.04 | 0.882 | 0.431 | 0.279 |
| NCI-H1437 | 0.942 | 0.93 | 0.951 | 0.932 | 0.816 | 0.928 | 1 | 1 | 0.542 | 0.272 | 0.173 | 1.02 | 1.06 | 1.03 | 0.757 | 0.346 |
| NCI-H1563 | 0.989 | 0.979 | 1.08 | 0.956 | 0.895 | 0.971 | 1 | 0.826 | 0.858 | 0.564 | 0.442 | 1.03 | 1.01 | 0.999 | 0.752 | 0.509 |
| NCI-H1623 | 0.98 | 0.978 | 1.24 | 1.04 | 0.956 | 0.955 | 1.01 | 0.766 |  | 0.325 | 0.273 | 0.956 | 1.13 | 1.01 | 0.843 | 0.542 |
| NCI-H1648 | 1.02 | 0.85 | 1.64 | 0.718 | 0.815 | 0.771 | 0.769 | 0.529 |  | 0.622 | 0.312 | 0.972 | 1.04 | 0.983 | 0.655 | 0.484 |
| NCI-H1650 | 0.938 | 0.981 | 0.879 | 0.646 | 0.34 | 0.751 | 0.805 | 0.2 | 0.206 | 0.161 | 0.167 | 0.86 | 1.05 | 0.972 | 0.185 | 0.101 |
| NCI-H1651 | 0.954 | 0.957 | 1.07 | 0.847 | 0.754 | 0.992 | 0.969 | 0.727 | 0.943 | 0.173 | 0.121 | 1.03 | 0.992 | 0.939 | 0.712 | 0.288 |
| NCI-H1666 | 0.995 | 1.03 | 1.08 | 0.856 | 0.517 | 1.01 | 1.04 | 0.963 | 0.855 | 0.493 | 0.317 | 0.973 | 0.894 | 1.09 | 0.847 | 0.594 |
| NCI-H1703 | 0.955 | 0.846 | 0.858 | 0.72 | 0.542 | 1.15 | 0.757 | 0.356 | 0.338 | 0.132 | 0.119 | 0.825 | 0.912 | 0.575 | 0.19 | 0.135 |
| NCI-H1734 | 1.01 | 0.934 | 0.812 | 0.821 | 0.365 | 0.929 | 1.01 | 0.944 | 0.945 | 0.15 | 0.119 | 0.939 | 0.913 | 0.799 | 0.328 | 0.155 |
| NCI-H1755 | 0.981 | 0.975 | 0.884 | 0.994 | 0.964 | 1.01 | 0.96 | 1.02 | 0.963 | 0.378 | 0.224 | 1.03 | 1.05 | 1.02 | 0.722 | 0.443 |
| NCI-H1792 | 0.985 | 0.795 |  | 0.92 | 0.7 | 0.754 | 0.838 | 0.904 | 0.956 | 0.602 | 0.277 | 0.957 | 0.934 | 0.813 | 0.338 | 0.0683 |
| NCI-H1793 | 0.949 | 0.795 | 0.859 | 0.929 | 0.986 | 0.843 | 0.705 | 0.997 |  | 0.688 | 0.208 | 0.894 | 0.979 | 0.858 | 0.179 | 0.106 |
| NCI-H1915 | 0.973 | 0.949 | 0.898 | 0.999 | 0.941 | 0.948 | 1 | 1.09 | 0.96 | 0.91 | 0.0999 | 1 | 0.96 | 0.96 | 0.705 | 0.22 |
| NCI-H1944 | 1.04 | 0.883 | 1.01 | 1.01 | 1.02 | 0.926 | 0.94 | 0.917 |  | 0.854 | 0.283 | 0.987 | 0.98 | 0.953 | 0.657 | 0.465 |
| NCI-H1975 | 1.02 | 0.865 |  | 0.977 | 0.717 | 0.902 | 0.858 | 0.239 | 0.395 | 0.153 | 0.158 | 0.954 | 0.956 | 0.984 | 0.458 | 0.152 |
| NCI-H1993 | 0.92 | 0.865 | 1.07 | 1.03 | 0.896 | 0.903 | 0.935 | 1.01 | 1.19 | 0.493 | 0.502 | 0.91 | 0.882 | 1.27 | 0.571 | 0.423 |
| NCI-H2009 | 0.958 | 1.02 | 0.85 | 0.626 | 0.301 | 1.01 | 0.977 | 1.07 | 0.971 | 0.0869 | 0.0749 | 0.995 | 0.95 | 0.997 | 0.646 | 0.243 |

| Cell Line | relative viability (Obatoclax; 0.01 µM) | relative viability (Obatoclax; 0.03162 µM) | relative viability (Obatoclax; 0.1 µM) | relative viability (Obatoclax; 0.3162 µM) | relative viability (Obatoclax; 1 µM) | relative viability (Bortezomib; 0.0002 µM) | relative viability (Bortezomib; 0.000632 µM) | relative viability (Bortezomib; 0.002 µM) | relative viability (Bortezomib; 0.002 µM, anchor plate) | relative viability (Bortezomib; 0.006325 µM) | relative viability (Bortezomib; 0.02 µM) | relative viability ([1]; 0.08 µM) | relative viability ([1]; 0.253 µM) | relative viability ([1]; 0.8 µM) | relative viability ([1]; 2.53 µM) | relative viability ([1]; 8 µM) |
| --- | --- | --- | --- | --- | --- | --- | --- | --- | --- | --- | --- | --- | --- | --- | --- | --- |
| NCI-H2023 | 0.928 | 0.969 | 0.946 | 0.774 | 0.229 | 1.02 | 0.9 | 1 | 1.01 | 0.139 | 0.0632 | 1.01 | 1.02 | 0.859 | 0.108 | 0.0691 |
| NCI-H2085 | 0.962 | 0.975 | 0.9 | 0.943 | 0.56 | 0.979 | 0.978 | 0.993 | 1.07 | 0.617 | 0.23 | 1.04 | 1.05 | 0.95 | 0.695 | 0.323 |
| NCI-H2087 | 1.01 | 1.14 | 0.8 | 0.876 | 0.298 | 0.9 | 1.08 | 0.726 | 0.79 | 0.0629 | 0.0618 | 0.959 | 0.761 | 1.09 | 0.277 | 0.13 |
| NCI-H2126 | 1.03 | 0.959 | 0.931 | 0.989 | 0.918 | 0.968 | 1.02 | 1.03 | 1.1 | 0.924 | 0.749 | 0.993 | 1.04 | 0.961 | 0.875 | 0.41 |
| NCI-H2170 | 0.942 | 0.979 | 1.01 | 0.961 | 0.977 | 0.96 | 0.824 | 1.07 |  | 0.815 | 0.177 | 0.971 | 1.04 | 0.868 | 0.77 | 0.266 |
| NCI-H2228 | 0.951 | 0.922 | 1.01 | 0.791 | 0.595 | 0.929 | 0.974 | 0.638 | 1.06 | 0.103 | 0.123 | 0.846 | 1.18 | 0.782 | 0.179 | 0.0666 |
| NCI-H2342 | 1.02 | 1.08 | 1.06 | 0.857 | 0.954 | 1.1 | 0.948 | 1.02 |  | 1.03 | 0.748 | 0.913 | 0.938 | 1.1 | 0.916 | 0.366 |
| NCI-H2347 | 0.999 | 0.946 | 0.843 | 0.946 | 0.926 | 1 | 0.936 | 1.03 | 1.08 | 0.615 | 0.339 | 0.966 | 1.11 | 1.1 | 0.891 | 0.525 |
| NCI-H2405 | 1.07 | 0.997 |  | 1.01 | 1.07 | 0.96 | 0.907 | 0.988 | 0.939 | 0.293 | 0.18 | 0.979 | 0.889 | 1.06 | 0.458 | 0.201 |
| NCI-H3122 | 0.985 | 0.931 | 0.927 | 0.984 | 1.01 | 1 | 0.957 | 1.07 | 1 | 0.825 | 0.149 | 1.01 | 0.857 | 0.982 | 0.956 | 0.308 |
| PC-3 [JPC-3] | 1.02 | 1.01 | 1.01 | 0.985 | 1.02 | 0.905 | 0.998 | 1.04 | 0.82 | 0.358 | 0.231 | 1.03 | 1.07 | 1.09 | 1.04 | 0.726 |
| PC-14 | 0.943 | 1.02 | 0.787 | 0.796 | 0.313 | 0.957 | 0.939 | 0.942 | 0.871 | 0.188 | 0.0669 | 1 | 1.07 | 0.968 | 0.427 | 0.104 |
| RERF-LC-KJ | 0.98 | 1.03 | 0.989 | 0.924 | 0.715 | 0.995 | 0.949 | 1.02 | 1.11 | 0.366 | 0.239 | 0.979 | 0.964 | 0.932 | 0.555 | 0.279 |
| SK-LU-1 | 1.03 | 1.04 | 0.797 | 0.808 | 0.616 | 1.02 | 0.969 | 0.778 | 1.22 | 0.212 | 0.162 | 1.05 | 1.09 | 0.962 | 0.455 | 0.143 |
| SK-MES-1 | 0.961 | 1 | 0.947 | 0.721 | 0.414 | 0.98 | 0.959 | 1.05 |  | 0.319 | 0.185 | 0.998 | 1.09 | 0.941 | 0.475 | 0.162 |
| SW 900 | 0.887 | 0.871 | 0.748 | 0.703 | 0.365 | 0.84 | 0.932 | 0.207 |  | 0.154 | 0.17 | 0.665 | 0.844 | 0.856 | 0.459 | 0.262 |
| SW 1573 | 1.07 | 0.957 | 0.966 | 0.709 | 0.257 | 0.963 | 0.981 | 0.947 | 1.02 | 0.11 | 0.0607 | 0.935 | 0.952 | 0.826 | 0.299 | 0.0971 |
| UMC-11 | 1.02 | 0.962 | 0.843 | 0.921 | 0.554 | 0.896 | 0.927 | 0.946 | 0.757 | 0.668 | 0.185 | 0.928 | 0.904 | 0.693 | 0.187 | 0.141 |
